Data on 14 compounds can be found in article PMC8199291 (Molecules, 2021).

In one assay the target is T1, human FAAH (hFAAH) (Homo sapiens, UniProt O00519).
T1 construct: purchased Cayman Item # 10005196
T1 sequence (O00519 1-579): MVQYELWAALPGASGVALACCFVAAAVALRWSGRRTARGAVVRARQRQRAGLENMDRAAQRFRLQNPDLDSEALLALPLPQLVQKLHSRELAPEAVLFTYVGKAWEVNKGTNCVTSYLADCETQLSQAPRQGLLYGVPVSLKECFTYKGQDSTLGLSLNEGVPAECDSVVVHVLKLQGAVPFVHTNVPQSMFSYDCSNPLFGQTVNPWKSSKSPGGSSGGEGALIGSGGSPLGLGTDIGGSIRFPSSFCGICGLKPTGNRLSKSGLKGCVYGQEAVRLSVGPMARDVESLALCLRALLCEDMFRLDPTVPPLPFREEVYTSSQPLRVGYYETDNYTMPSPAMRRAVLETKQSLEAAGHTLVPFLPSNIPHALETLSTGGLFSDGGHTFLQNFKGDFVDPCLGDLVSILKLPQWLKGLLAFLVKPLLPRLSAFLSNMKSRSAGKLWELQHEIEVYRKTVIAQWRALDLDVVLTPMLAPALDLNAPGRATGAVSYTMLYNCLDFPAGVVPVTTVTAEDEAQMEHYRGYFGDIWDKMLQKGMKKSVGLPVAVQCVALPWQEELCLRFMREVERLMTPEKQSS
The experiment in a line: FAAH enzyme inhibition assay (Cayman inhibitor screening kit, AMC-arachidonoyl amide, fluorescence). The assay is classed as biochemical. The settings on record: for FAAH inhibitory activity (in words): in vitro, up to 100 μM. On the procedure: The manufacturer’s protocol was followed to perform the assay. […] AMC-Arachidonoyl amide, at a concentration of 400 μM, was then used as the FAAH substrate. The samples were mixed for 30 s and incubated at 37 °C for 30 min.

The target in another assay is T2, human MAGL (hMAGL) (Homo sapiens, UniProt Q99685).
T2 construct: purchased Reaction Biology Corp
T2 sequence (Q99685 1-303): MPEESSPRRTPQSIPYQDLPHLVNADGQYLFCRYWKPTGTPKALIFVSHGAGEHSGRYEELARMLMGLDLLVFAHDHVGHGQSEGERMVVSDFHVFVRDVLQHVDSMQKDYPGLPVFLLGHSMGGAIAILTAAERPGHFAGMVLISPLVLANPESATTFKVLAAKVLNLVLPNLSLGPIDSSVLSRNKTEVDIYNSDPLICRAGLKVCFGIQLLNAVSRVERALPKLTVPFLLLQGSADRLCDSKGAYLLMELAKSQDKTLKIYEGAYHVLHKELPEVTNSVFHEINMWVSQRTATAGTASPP
The experiment in a line: MAGL enzyme inhibition assay (4-nitrophenylacetate hydrolysis, absorbance 405 nm). As to IC50 (µM) ± SE (hMAGL): 250 µM 4-nitrophenylacetate. It is filed as biochemical. The note with it: for decrease of MAGL inhibitory activity: relative to the parent compound as worded in the text (disulfiram for 2c, 2d; para substitution of 2h for 2k); for MAGL inhibitory activity (in words): in vitro. On the procedure: All of the tested compounds were prepared as 10 mM stock solutions in DMSO. […] The plate was mixed for 30 s and incubated at room temperature for 30 min.

[1] abbreviates: read-out: IC50 (µM) ± SE (hFAAH).
The mark [2] stands for this setting: read-out: IC50 (µM) ± SE (hMAGL).
Where [3] appears, read: 10-dose IC50 mode, 3-fold serial dilution, top 100 μM (JZL195 5 μM), 400 μM AMC-arachidonoyl amide, 37 °C 30 min, average of at least two experiments ± SE.

Structures are written as SMILES. “And” between values parts separate entries of the source, which are not always exact repeats. Identical values can stand only once. “Also recorded” adds a separate entry of the source. Like-named read-outs stand apart in the source and are kept apart here.

For the compound `CCN(CC)C(=S)SSC(=S)N(CC)CC` [2a, Disulfiram, reference compound], the IC50 (in general, the concentration needed to halve the response being measured) was 36 µM and 36.2 µM on human FAAH (hFAAH) (setting [1]); 0.95 ± 0.26 µM at human MAGL (hMAGL) (setting [2]).

Turning to `CC(C)N(C(=S)SSC(=S)N(C(C)C)C(C)C)C(C)C` [2b], the IC50 at human FAAH (hFAAH) (setting [3]) was above 100 µM; at human MAGL (hMAGL) (setting [2]), 1.89 ± 0.37 µM.

In the case of `CCCCN(CCCC)C(=S)SSC(=S)N(CCCC)CCCC` [2c], the IC50 against human FAAH (hFAAH) (setting [3]) was above 100 µM; on human MAGL (hMAGL) (setting [2]), 7.14 ± 0.21 µM. Further, the “FAAH inhibitory activity (in words)” value at human FAAH (hFAAH) is on record as “no inhibition”. Besides, on human MAGL (hMAGL), the “decrease of MAGL inhibitory activity” value was “up to 15 fold”.

As to `CC(C)CN(CC(C)C)C(=S)SSC(=S)N(CC(C)C)CC(C)C` [2d], the figures for the IC50 at human FAAH (hFAAH) (setting [3]) and at human MAGL (hMAGL) (setting [2]) were above 100 µM and 13.4 ± 4.79 µM, respectively. The “FAAH inhibitory activity (in words)” value at human FAAH (hFAAH) is listed as “no inhibition”. Besides, the “hydrolytic activity of MAGL inhibited by the compound upon addition of dithiothreitol (reversibility of inhibition)” value at human MAGL (hMAGL) (absence vs presence of dithiothreitol 10 mM) was “restored”. Moreover, the “decrease of MAGL inhibitory activity” value at human MAGL (hMAGL) is “up to 15 fold”.

Consider `CCN(CCO)C(=S)SSC(=S)N(CC)CCO` [2e], for which the values for the IC50 at human FAAH (hFAAH) (setting [1]) and at human MAGL (hMAGL) (setting [2]) were 25.4 ± 3.26 µM and 0.72 ± 0.2 µM, respectively.

Take `CCN(CCC(=O)O)C(=S)SSC(=S)N(CC)CCC(=O)O` [2f]: the IC50 at human FAAH (hFAAH) (setting [1]) came to 12.8 ± 1.57 µM; on human MAGL (hMAGL) (setting [2]) it was 0.87 ± 0.21 µM.

Turning to `CCOC(=O)CCN(CC)C(=S)SSC(=S)N(CC)CCC(=O)OCC` [2g, Bis(N-ethoxycarbonylethylethylthiocarbamoyl)disulphide], the IC50 on human FAAH (hFAAH) (setting [1]) was found to be 10 ± 0.68 µM; at human MAGL (hMAGL) (setting [2]), 3.53 ± 1.32 µM. On human MAGL (hMAGL), the “MAGL inhibitory activity (in words)” value was “low micromolar range”.

On to `CCN(Cc1ccccc1)C(=S)SSC(=S)N(CC)Cc1ccccc1` [2h], for which the values for the half-maximal inhibitory concentration (IC50) on human FAAH (hFAAH) (setting [3]) and on human MAGL (hMAGL) (setting [2]) were above 100 µM and 5.53 ± 2.62 µM, respectively. In addition, at human FAAH (hFAAH), the “FAAH inhibitory activity (in words)” value is “devoid of anti-FAAH activity”.

Consider `CCN(Cc1ccc(F)cc1)C(=S)SSC(=S)N(CC)Cc1ccc(F)cc1` [2i], for which the IC50 on human FAAH (hFAAH) (setting [3]) is above 100 µM; on human MAGL (hMAGL) (setting [2]) it was 3.58 ± 1.54 µM. The “FAAH inhibitory activity (in words)” value at human FAAH (hFAAH) is on record as “devoid of anti-FAAH activity; also recorded: did not show any inhibitory activity”. Further, the “MAGL inhibitory activity (in words)” value on human MAGL (hMAGL) is “low micromolar range”.

Regarding `CCN(Cc1ccc(O)cc1)C(=S)SSC(=S)N(CC)Cc1ccc(O)cc1` [2j], the 50% inhibitory concentration (IC50) on human FAAH (hFAAH) (setting [1]) was determined as 38.3 ± 7.96 µM; on human MAGL (hMAGL) (setting [2]) it was 3.71 ± 1.28 µM.

With `CCN(Cc1ccc(C(=O)O)cc1)C(=S)SSC(=S)N(CC)Cc1ccc(C(=O)O)cc1` [2k], the half-maximal inhibitory concentration (IC50) against human FAAH (hFAAH) (setting [3]) was above 100 µM; on human MAGL (hMAGL) (setting [2]), 22.6 ± 16.8 µM. At human FAAH (hFAAH), the “FAAH inhibitory activity (in words)” value is reported as “devoid of anti-FAAH activity”.

Turning to `CCOC(=O)c1ccc(CN(CC)C(=S)SSC(=S)N(CC)Cc2ccc(C(=O)OCC)cc2)cc1` [2l, Bis(N-4-ethoxycarbonylbenzylethylthiocarbamoyl)disulphide], the IC50 at human FAAH (hFAAH) (setting [3]) is above 100 µM; on human MAGL (hMAGL) (setting [2]), 5.03 ± 2.35 µM. Besides, the “FAAH inhibitory activity (in words)” value at human FAAH (hFAAH) is recorded as “devoid of anti-FAAH activity”.

Consider `S=C(SSC(=S)N(Cc1ccccc1)Cc1ccccc1)N(Cc1ccccc1)Cc1ccccc1` [2m], for which the IC50 was above 100 µM against human FAAH (hFAAH) (setting [3]) and 3.58 ± 0.95 µM on human MAGL (hMAGL). Moreover, on human FAAH (hFAAH), the “FAAH inhibitory activity (in words)” value is listed as “complete loss of FAAH inhibitory activity”.

In turn, `O=C(Oc1ccc([N+](=O)[O-])cc1)N1CCN(Cc2cccc(Oc3ccccc3)c2)CC1` [JZL-195, reference compound] returned an IC50 at human FAAH (hFAAH) (setting [3]) of 0.04 ± 0.02 µM.
